Test results from US8552002B2 (Novartis AG, priority 2004, dated 2013).
Where a name gives a salt, the structure may show the parent alone.

Tests used:
Format in all cases: biochemical
[1] = molecular target: T1, FGFR3 (K650E) (Homo sapiens, UniProt P22607, K650E); test: Recombinant GST-FGFR-3-K650E tyrosine kinase assay (33P into poly(Glu,Tyr)); conditions: 10 μM; Examples 1 to 169; read-out: FGFR3 (K650E) inhibition at 10 μM
T1 construct: amino acids 411-806 of the cytoplasmic domain of human FGFR-3, N-terminally fused to GST; made in house; host or cells: Sf9 insect cells (baculovirus)
T1 sequence (P22607 411-806 K650E): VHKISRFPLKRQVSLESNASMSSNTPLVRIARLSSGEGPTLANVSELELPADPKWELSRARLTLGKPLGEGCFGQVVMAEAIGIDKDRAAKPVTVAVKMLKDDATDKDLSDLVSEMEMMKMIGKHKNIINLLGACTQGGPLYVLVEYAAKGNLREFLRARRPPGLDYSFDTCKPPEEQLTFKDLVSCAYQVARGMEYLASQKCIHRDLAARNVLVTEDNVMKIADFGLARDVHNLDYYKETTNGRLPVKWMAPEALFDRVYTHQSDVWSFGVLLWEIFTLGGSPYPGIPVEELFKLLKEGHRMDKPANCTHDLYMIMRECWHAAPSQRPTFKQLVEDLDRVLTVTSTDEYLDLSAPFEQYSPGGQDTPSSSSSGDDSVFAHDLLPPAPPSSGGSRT

[2] = molecular target: T2, Tek (Homo sapiens, UniProt Q02763); test: Recombinant GST-Tek (Tie-2) tyrosine kinase assay (33P into poly(Glu,Tyr)); conditions: Examples 1 to 169
T2 construct: amino acids 773-1124 of the cytoplasmic kinase domain of human Tek, N-terminally fused to GST; made in house; host or cells: Sf9 insect cells (baculovirus)
T2 sequence (Q02763 773-1124): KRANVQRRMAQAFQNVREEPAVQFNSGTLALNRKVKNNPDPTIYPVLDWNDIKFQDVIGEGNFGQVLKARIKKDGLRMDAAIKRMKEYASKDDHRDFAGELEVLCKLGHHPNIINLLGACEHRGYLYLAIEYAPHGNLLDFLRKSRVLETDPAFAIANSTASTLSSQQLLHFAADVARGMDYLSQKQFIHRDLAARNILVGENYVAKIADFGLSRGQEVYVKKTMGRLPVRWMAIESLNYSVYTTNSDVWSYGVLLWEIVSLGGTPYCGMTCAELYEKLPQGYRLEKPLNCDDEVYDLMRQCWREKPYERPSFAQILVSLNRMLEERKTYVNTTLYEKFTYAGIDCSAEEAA
Method in brief: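 Read-out is filter-bound 33P in poly(Glu,Tyr) 4:1 (10 μg/mL) after 30 min at ambient temperature with 4.0 μM ATP. Enzyme: 150 ng human GST-Tek (aa 773-1124) from insect cells, in Tris pH 7.5 with Mn2+/Mg2+ and vanadate. IC50 fitted linearly over four concentrations, usually 0.01-10 μM.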

[3] = molecular target: T3, KDR (Homo sapiens, UniProt P35968); test: Inhibitory activity against KDR (VEGF-R2), in vitro data of Examples 170 and 207; conditions: 10 μM; Examples 1 to 169; read-out: KDR inhibition at 10 μM
T3 construct: expressed in transfected cells; host or cells: CHO cells
T3 sequence (P35968 20-1356): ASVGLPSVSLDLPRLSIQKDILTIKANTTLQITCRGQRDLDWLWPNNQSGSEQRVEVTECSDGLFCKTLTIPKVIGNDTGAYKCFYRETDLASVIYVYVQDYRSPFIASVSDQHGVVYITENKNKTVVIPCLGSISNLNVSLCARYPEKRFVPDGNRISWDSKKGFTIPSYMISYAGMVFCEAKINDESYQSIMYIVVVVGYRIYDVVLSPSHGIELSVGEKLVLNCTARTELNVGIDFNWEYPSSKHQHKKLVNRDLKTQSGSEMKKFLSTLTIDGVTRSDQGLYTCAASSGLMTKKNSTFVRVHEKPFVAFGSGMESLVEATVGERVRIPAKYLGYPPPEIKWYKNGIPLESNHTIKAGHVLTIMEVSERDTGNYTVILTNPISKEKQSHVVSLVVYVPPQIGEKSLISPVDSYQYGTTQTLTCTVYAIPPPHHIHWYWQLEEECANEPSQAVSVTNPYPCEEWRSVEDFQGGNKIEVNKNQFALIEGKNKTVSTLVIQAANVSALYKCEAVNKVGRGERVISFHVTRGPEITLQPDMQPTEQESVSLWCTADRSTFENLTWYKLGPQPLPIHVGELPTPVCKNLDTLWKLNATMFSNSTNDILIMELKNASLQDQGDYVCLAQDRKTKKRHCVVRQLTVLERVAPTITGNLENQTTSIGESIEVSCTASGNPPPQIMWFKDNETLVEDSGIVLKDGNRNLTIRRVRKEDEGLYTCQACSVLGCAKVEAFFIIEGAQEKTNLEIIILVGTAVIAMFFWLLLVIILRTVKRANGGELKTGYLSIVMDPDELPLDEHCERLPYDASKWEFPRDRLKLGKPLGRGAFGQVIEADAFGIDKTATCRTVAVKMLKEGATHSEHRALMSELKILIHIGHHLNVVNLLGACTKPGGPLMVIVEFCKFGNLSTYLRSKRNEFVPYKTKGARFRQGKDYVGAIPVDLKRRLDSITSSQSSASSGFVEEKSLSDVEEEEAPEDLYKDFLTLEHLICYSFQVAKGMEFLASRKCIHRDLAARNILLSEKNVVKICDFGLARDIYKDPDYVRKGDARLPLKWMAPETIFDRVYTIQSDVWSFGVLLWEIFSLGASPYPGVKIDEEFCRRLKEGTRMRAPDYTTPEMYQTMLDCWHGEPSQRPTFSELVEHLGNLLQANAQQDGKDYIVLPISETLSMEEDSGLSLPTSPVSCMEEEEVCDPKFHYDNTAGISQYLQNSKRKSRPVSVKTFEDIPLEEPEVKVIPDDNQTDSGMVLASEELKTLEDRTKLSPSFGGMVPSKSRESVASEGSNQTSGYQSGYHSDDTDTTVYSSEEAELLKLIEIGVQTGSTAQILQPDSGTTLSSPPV
Method in brief: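 KDR tyrosine phosphorylation detected by luminescence after overnight 4° C capture of 20 μg lysate protein with PY20:AP antibody. Lysates came from cells given compound for 2 h at 37° C, then final 20 ng/ml VEGF for 5 min; compound-free medium as control.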

Row | Structure (SMILES) | inhibition at 10 µM [1] [%] | inhibition at 10 µM [2] [%] | inhibition at 10 µM [3] [%]
1 | COc1cc(NC(=O)N(CCc2ccccn2)c2cc(Nc3ccccc3)ncn2)c(Cl)c(OC)c1 [Example 58, 3-(2-Chloro-3,5-dimethoxy-phenyl)-1-(6-phenylamino-pyrimidin-4-yl)-1-(2-pyridin-2-yl-ethyl)-urea] | 27 to 100 | 12 to 100 | 67 to 100
2 | COc1ccc(NC(=O)Nc2cc(Nc3cccc(N4CCN(C)CC4)c3)ncn2)cc1OC [Example 31, 1-(3,4-Dimethoxy-Phenyl)-3-{6-[3-(4-methyl-piperazin-1-yl)-phenyl-amino]-pyrimidin-4-yl}-urea] | 27 to 100 | 12 to 100 | 67 to 100
3 | CCN(C(=O)Nc1cccc(OC)c1OC)c1cc(Nc2ccc(N3CCN(C)CC3)cc2)ncn1 [Example 46, 3-(2,3-Dimethoxy-phenyl)-1-ethyl-1-{6-[4-(4-methyl-piperazin-1-yl)-phenylamino]-pyrimidin-4-yl}-urea] | 27 to 100 | 12 to 100 | 67 to 100
4 | CCN1CCN(Cc2ccc(Nc3cc(N(C)C(=O)Nc4c(Cl)c(OC)cc(OC)c4Cl)ncn3)cc2C(F)(F)F)CC1 [Example 169, 3-(2,6-Dichloro-3,5-dimethoxy-phenyl)-1-{6-[4-(4-ethyl-piperazin-1-ylmethyl)-3-trifluoromethyl-phenylamino]-pyrimidin-4-yl}-1-methyl-urea] | 27 to 100 | 12 to 100 | 67 to 100
5 | CN(C(=O)Nc1c(Cl)cccc1Cl)c1cc(Nc2ccc(F)cc2)ncn1 [Example 123, 3-(2,6-Dichloro-phenyl)-1-[6-(4-fluoro-phenylamino)-pyrimidin-4-yl]-1-methyl-urea] | 27 to 100 | 12 to 100 | 67 to 100
6 | CN(C(=O)Nc1c(Cl)cccc1Cl)c1cc(Nc2ccc(F)cc2F)ncn1 [Example 118, 3-(2,6-Dichloro-phenyl)-1-[6-(2,4-difluoro-phenylamino)-pyrimidin-4-yl]-1-methyl-urea] | 27 to 100 | 12 to 100 | 67 to 100
7 | COc1cc(OC)c(Cl)c(NC(=O)N(C)c2cc(Nc3ccc(OCCCN4CCN(C)CC4)cc3)ncn2)c1Cl [Example 146, 3-(2,6-Dichloro-3,5-dimethoxy-phenyl)-1-methyl-1-(6-{4-[3-(4-methyl-piperazin-1-yl)-propoxy]-phenylamino}-pyrimidin-4-yl)-urea] | 27 to 100 | 12 to 100 | 67 to 100
8 | COc1ccc(NC(=O)Nc2cc(Nc3cccc(N4CCN(C)CC4)c3)ncn2)c(OC)c1 [Example 17, 1-(2,4-Dimethoxy-phenyl)-3-{6-[3-(4-methyl-piperazin-1-yl)-phenyl-amino]-pyrimidin-4-yl}-urea] | 27 to 100 | 12 to 100 | 67 to 100
9 | O=C(Nc1cc(Nc2ccc(OCCCN3CCOCC3)cc2)ncn1)Nc1ccccc1Cl [Example 125, 1-(2-Chloro-Phenyl)-3-{6-[4-(3-morpholin-4-yl-propoxy)-phenylamino]-pyrimidin-4-yl}-urea bis-hydrochloride Salt] | 27 to 100 | 12 to 100 | 67 to 100
10 | CN(C(=O)Nc1c(Cl)cccc1Cl)c1cc(Nc2ccc(N3CCOCC3)cc2)ncn1 [Example 117, 3-(2,6-Dichloro-phenyl)-1-methyl-1-[6-(4-morpholin-4-yl-phenylamino)-pyrimidin-4-yl]-urea] | 27 to 100 | 12 to 100 | 67 to 100
11 | CCN1CCN(Cc2ccc(Nc3cc(NC(=O)Nc4c(Cl)c(OC)cc(OC)c4Cl)ncn3)cc2C(F)(F)F)CC1 [Example 168, 1-(2,6-Dichloro-3,5-dimethoxy-phenyl)-3-{6-[4-(4-ethyl-piperazin-1-ylmethyl)-3-trifluoromethyl-phenylamino]-pyrimidin-4-yl}-urea] | 27 to 100 | 12 to 100 | 67 to 100
12 | O=C(Nc1cc(Nc2ccc(OCCN3CCOCC3)cc2)ncn1)Nc1ccccc1Cl [Example 142, 1-(2-Chloro-phenyl)-3-{6-[4-(2-morpholin-4-yl-ethoxy)-phenylamino]-pyrimidin-4-yl}-urea] | 27 to 100 | 12 to 100 | 67 to 100
13 | COc1ccc(OC)c(NC(=O)Nc2cc(Nc3cccc(Cl)c3)ncn2)c1 [Example 132, 1-[6-(3-Chloro-phenylamino)-pyrimidin-4-yl]-3-(2,5-dimethoxy-phenyl)-urea] | 27 to 100 | 12 to 100 | 67 to 100
14 | Cc1cccc(C)c1NC(=O)N(C)c1cc(Nc2cccc(Cl)c2)ncn1 [Example 127, 1-[6-(3-Chloro-phenylamino)-pyrimidin-4-yl]-3-(2,6-dimethyl-phenyl)-1-methyl-urea] | 27 to 100 | 12 to 100 | 67 to 100
